Experimental data as given in patent US10918645B2 (LIFEARC, priority 2016, dated 2021).

Columns and labels:
Details in all cases: 1 μM inhibitor concentration
[1] = system: AMPK(hum); experiment: AMPK kinase selectivity assay; type: biochemical, human
Method: AMPK (5-20 mU diluted in 50 mM Hepes pH 7.5, 1 mM DTT, 0.02% Brij35) is assayed against SAMS substrate peptide ([…]) in a final volume of 25.5 μl containing 50 mM Hepes pH 7.5, 1 mM DTT, 0.02% Brij35, 0.4 mM SAMS peptide, 0.196 mM AMP, 10 mM magnesium acetate and 0.05 mM [33P-g-ATP] (50-1000 cpm/pmole) and incubated for 30 min at room temperature. Assays are stopped by addition of 5 μl of 0.5 M (3%) orthophosphoric acid and then harvested onto P81 Unifilter plates with a wash buffer of 50 mM orthophosphoric acid.

[2] = biological target: NEK2a (Homo sapiens (Human), UniProt P51955); experiment: NEK2a kinase selectivity assay; type: biochemical
Method: 5-20 mU of NEK2a (diluted in 50 mM Tris (pH 7.5), 0.1 mM EGTA, 1 mg/ml BSA, 0.1%, b-Mercaptoethanol) is assayed against NEK2a peptide ([…]) in a final volume of 25.5 μl containing 50 mM Tris (pH 7.5), 0.1 mM EGTA, 0.01% Brij, 0.1%, b-Mercaptoethanol, 300 μM NEK2a peptide, 10 mM magnesium acetate and 0.05 mM [33P-g-ATP](500-1000 cpm/pmole) and incubated for 30 mins at room temperature. Assays are stopped by addition of 5 μl of 0.5M (3%) orthophosphoric acid. Assays are harvested onto P81 Unifilter plates using a wash buffer of 50 mM orthophosphoric acid.

[3] = biological target: ULK2 (Homo sapiens (Human), UniProt Q8IYT8); experiment: ULK2 kinase selectivity assay; type: biochemical
[4] = biological target: MST4 (Homo sapiens (Human), UniProt Q9P289); experiment: MST4 kinase selectivity assay; type: biochemical
Method: 5-20 mU of MST4 (diluted in 50 mM Tris (pH 7.5), 0.1 mM EGTA) is assayed against MBP in a final volume of […] containing 50 mM Tris (pH 7.5), 0.1 mM EGTA, 0.33 mg/ml MBP, 10 mM magnesium acetate and 0.02 mM [33P-g-ATP](500-1000 cpm/pmole) and incubated for 30 mins at room temperature. Assays are stopped by addition of […] of 0.5M (3%) orthophosphoric acid. Assays are harvested onto P81 Unifilter plates using a wash buffer of 50 mM orthophosphoric acid.

[5] = biological target: LKB1 (Homo sapiens (Human), UniProt Q15831); experiment: LKB1 kinase selectivity assay; type: biochemical
Method: LKB1 (5-20 mU diluted in 50 mM Tris pH 7.5, 0.1 mM EGTA, 0.1% β-mercaptoethanol, 1 mg/ml BSA) is assayed against […] in a final volume of 25.5 μl containing 50 mM Tris pH 7.5, 0.1 mM EGTA, 0.2 mM […], 10 mM magnesium acetate and 0.02 mM [33P-γ-ATP] (50-1000 cpm/pmole) and incubated for 30 min at room temperature. Assays are stopped by addition of 5 μl of 0.5 M (3%) orthophosphoric acid and then harvested onto P81 Unifilter plates with a wash buffer of 50 mM orthophosphoric acid.

[6] = biological target: PKBb (Homo sapiens (Human), UniProt P31751, S474D); experiment: PKBb kinase selectivity assay; type: biochemical
Method: (§1) ΔPH-PKBbeta-S474D (5-20 mU diluted in 50 mM Tris pH 7.5, 0.1 mM EGTA, 0.1% b-mercaptoethanol, 1 mg/ml BSA) is assayed against a modified Crosstide peptide ([…]) in a final volume of 25.5 μl containing 50 mM Tris pH 7.5, 0.05% b-mercaptoethanol, 30 μM substrate peptide, 10 mM magnesium acetate and 0.05 mM [33P-g-ATP](50-1000 cpm/pmole) and incubated for 30 min at room temperature. Assays are stopped by addition of 5 μl of 0.5 M (3%) orthophosphoric acid and then harvested onto P81 Unifilter plates with a wash buffer of 50 mM orthophosphoric acid.

[7] = system: Lck; experiment: Lck kinase selectivity assay; type: biochemical
Method: LCK (5-20 mU diluted in 20 mM MOPS pH 7.5, 1 mM EDTA, 0.01% Brij35, 5% glycerol, 0.1% b-mercaptoethanol, 1 mg/ml BSA) is assayed against Cdc2 peptide ([…]) in a final volume of 25.5 μl containing 50 mM Tris pH 7.5, 0.1 mM EGTA, 0.1 mM Na3Vo4, Cdc2 peptide (0.25 mM), 10 mM magnesium acetate and 0.05 mM [33P-g-ATP](500-1000 cpm/pmole) and incubated for 15 min at room temperature Assays are stopped by addition of 5 μl of 0.5 M (3%) orthophosphoric acid and then harvested onto P81 Unifilter plates with a wash buffer of 50 mM orthophosphoric acid.

[8] = system: PHK; experiment: PHK kinase selectivity assay; type: biochemical
Method: […] (5-20 mU diluted in 50 mM Na-b-glycerophosphate pH 7.0, 0.1% b-mercaptoethanol) is assayed against phosphorylase b peptide ([…]) in a final volume of 25.5 μl containing 50 mM Tris pH 8.6, 50 mM Na-b-glycerophosphate, 0.04 mM CaCl2, phosphorylase b peptide (0.196 mM), 10 mM magnesium acetate, 0.02 mM [33P-g-ATP] (500-1000 cpm/pmole) then incubated for 15 min at room temperature. Assays are stopped by addition of 5 μl of 0.5 M (3%) orthophosphoric acid and then harvested onto P81 Unifilter plates with a wash buffer of 50 mM orthophosphoric acid.

[9] = biological target: Src (Homo sapiens (Human), UniProt P12931); experiment: Src kinase selectivity assay; type: biochemical
Method: as §1, with “Src (5-20” for “ΔPH-PKBbeta-S474D (5-20”, “a substrate” for “a modified Crosstide”, “b-mercaptoethanol, 300” for “b-mercaptoethanol, 30”, “mM [33P-g-ATP] (50-1000” for “mM [33P-g-ATP](50-1000”

NEK2a, sequence (P51955 whole entry, species assumed): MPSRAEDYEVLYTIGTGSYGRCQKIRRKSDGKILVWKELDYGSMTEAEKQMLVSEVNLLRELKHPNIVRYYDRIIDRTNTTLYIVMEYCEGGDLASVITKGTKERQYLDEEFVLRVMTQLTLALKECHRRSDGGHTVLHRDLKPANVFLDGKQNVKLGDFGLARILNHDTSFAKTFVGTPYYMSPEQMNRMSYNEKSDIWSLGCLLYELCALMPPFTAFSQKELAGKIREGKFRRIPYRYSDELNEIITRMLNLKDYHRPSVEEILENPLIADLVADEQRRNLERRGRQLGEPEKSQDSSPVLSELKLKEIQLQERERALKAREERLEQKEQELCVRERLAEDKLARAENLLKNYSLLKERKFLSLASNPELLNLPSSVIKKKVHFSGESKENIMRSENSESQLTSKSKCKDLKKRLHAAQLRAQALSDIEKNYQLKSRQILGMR
Src, sequence (P12931 whole entry, looked up, species assumed): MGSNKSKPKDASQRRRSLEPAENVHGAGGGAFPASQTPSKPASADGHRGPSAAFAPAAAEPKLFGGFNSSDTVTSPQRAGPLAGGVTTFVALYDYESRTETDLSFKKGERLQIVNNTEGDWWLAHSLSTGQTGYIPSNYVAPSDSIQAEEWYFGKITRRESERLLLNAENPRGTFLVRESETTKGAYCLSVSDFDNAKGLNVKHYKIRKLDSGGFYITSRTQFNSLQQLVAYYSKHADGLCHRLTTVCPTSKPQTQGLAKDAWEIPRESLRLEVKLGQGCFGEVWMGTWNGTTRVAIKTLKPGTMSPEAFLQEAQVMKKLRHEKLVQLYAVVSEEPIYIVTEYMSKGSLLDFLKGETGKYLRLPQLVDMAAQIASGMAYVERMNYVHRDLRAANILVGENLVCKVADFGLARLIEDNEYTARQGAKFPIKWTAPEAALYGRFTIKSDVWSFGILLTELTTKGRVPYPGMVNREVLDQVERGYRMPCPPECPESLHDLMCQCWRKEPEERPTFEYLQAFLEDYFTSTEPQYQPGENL
PKBb, sequence (P31751 120-481 S474D): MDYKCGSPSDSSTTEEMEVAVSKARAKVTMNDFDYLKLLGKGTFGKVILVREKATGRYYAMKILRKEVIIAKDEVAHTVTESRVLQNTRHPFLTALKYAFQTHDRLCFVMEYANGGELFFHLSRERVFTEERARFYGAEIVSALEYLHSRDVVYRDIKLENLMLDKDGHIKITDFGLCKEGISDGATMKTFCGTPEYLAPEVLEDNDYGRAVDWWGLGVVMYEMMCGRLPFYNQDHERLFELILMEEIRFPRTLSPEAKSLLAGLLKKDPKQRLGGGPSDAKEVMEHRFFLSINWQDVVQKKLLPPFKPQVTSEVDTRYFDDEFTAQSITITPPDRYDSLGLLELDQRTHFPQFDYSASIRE
MST4, sequence (Q9P289 whole entry, species assumed): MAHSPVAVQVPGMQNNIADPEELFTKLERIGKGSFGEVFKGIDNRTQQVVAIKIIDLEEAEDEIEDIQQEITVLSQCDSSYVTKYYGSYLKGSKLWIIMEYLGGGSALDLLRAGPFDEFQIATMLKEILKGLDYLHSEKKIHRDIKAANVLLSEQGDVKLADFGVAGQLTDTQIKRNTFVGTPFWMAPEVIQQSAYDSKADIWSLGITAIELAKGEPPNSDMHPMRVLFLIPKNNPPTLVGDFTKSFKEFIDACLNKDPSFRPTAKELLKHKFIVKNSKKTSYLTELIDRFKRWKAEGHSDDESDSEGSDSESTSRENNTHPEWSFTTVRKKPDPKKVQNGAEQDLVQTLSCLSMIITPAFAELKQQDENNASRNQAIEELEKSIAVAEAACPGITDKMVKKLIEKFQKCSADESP
ULK2, sequence (Q8IYT8 whole entry, species assumed): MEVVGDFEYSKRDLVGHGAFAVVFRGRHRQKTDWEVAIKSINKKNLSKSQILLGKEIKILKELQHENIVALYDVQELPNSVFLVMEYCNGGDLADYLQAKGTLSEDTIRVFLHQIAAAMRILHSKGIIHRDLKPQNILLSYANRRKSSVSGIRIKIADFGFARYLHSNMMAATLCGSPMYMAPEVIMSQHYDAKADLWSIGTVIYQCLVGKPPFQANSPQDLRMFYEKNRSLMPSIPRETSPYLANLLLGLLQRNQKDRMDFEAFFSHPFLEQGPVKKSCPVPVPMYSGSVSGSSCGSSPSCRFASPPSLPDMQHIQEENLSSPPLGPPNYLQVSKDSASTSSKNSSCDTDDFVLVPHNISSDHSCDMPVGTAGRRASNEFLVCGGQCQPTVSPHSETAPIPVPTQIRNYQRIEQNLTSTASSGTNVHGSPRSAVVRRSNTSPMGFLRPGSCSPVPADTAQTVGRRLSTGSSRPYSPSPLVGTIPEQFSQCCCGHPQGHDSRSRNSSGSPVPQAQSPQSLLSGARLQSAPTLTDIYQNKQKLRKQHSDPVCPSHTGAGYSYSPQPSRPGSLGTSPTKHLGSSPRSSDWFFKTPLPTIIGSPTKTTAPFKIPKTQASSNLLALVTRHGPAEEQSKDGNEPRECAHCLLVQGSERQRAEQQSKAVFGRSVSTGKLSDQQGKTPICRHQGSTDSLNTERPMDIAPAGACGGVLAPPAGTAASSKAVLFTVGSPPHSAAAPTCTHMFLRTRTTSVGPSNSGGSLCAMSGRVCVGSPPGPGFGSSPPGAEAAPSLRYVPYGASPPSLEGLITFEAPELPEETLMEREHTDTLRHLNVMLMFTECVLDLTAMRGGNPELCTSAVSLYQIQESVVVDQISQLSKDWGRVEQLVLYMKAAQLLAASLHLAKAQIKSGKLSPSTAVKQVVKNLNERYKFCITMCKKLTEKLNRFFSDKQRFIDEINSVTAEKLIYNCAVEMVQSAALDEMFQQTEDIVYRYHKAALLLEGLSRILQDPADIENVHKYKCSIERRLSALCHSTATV
LKB1, sequence (Q15831 whole entry, species assumed): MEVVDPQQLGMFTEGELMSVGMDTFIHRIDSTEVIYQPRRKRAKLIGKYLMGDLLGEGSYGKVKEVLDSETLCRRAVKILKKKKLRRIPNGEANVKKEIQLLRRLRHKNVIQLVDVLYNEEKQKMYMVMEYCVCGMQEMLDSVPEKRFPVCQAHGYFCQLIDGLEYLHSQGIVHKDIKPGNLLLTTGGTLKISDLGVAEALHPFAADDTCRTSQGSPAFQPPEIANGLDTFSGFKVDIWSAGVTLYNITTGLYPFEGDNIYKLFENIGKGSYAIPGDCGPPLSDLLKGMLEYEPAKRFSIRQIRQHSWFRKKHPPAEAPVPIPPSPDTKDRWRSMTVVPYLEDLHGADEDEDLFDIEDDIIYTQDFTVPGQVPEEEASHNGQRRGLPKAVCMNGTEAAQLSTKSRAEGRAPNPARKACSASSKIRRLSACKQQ
LKB1, sequence (Q7RTN6 whole entry partner, species assumed): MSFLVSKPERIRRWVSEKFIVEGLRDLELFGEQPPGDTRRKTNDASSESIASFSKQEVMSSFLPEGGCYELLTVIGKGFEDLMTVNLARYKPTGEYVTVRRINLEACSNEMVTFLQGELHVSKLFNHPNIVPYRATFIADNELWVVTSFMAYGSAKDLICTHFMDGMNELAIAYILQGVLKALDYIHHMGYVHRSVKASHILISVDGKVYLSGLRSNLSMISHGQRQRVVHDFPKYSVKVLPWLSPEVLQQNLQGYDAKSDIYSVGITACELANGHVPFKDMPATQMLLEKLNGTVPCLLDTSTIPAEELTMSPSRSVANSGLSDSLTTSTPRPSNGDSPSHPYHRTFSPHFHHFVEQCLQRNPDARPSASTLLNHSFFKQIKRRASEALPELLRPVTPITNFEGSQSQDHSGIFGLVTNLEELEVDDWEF
LKB1, sequence (Q9Y376 whole entry partner, species assumed): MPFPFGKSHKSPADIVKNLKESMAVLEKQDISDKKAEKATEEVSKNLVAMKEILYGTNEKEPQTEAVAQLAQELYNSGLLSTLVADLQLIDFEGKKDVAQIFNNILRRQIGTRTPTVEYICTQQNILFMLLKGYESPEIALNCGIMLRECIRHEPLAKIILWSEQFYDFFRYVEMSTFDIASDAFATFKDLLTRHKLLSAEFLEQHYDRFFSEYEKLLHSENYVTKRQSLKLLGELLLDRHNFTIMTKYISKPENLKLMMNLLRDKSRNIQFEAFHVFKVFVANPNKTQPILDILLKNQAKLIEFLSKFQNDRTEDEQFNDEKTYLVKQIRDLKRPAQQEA

Compound | percentage inhibition of AMPK(hum) [1] [percentage] | percentage inhibition of NEK2a [2] [percentage] | percentage inhibition of ULK2 [3] [percentage] | percentage inhibition of MST4 [4] [percentage] | percentage inhibition of LKB1 [5] [percentage] | percentage inhibition of PKBb [6] [percentage] | percentage inhibition of Lck [7] [percentage] | percentage inhibition of PHK [8] [percentage] | percentage inhibition of Src [9] [percentage]
c1cc2[nH]nc3c2c(n1)N(C1CCC1)CCC3 [Example 22, 6-cyclobutyl-6,7,8,9-tetrahydro-2H-1,2,5,6-tetraazabenzo[cd]azulene] | 16 | 13 | 12 | 6 | 20 | 0 | 0 | 41 | 13
c1cc2[nH]nc3c2c(n1)N(C1CCCC1)CCC3 [Example 23, 6-cyclopentyl-6,7,8,9-tetrahydro-2H-1,2,5,6-tetraazabenzo[cd]azulene] |  | 8 | 1 | 0 | 16 | 0 |  |  | 0
c1cc2[nH]nc3c2c(n1)N(C1CCOCC1)CCC3 [Example 29, 6-(tetrahydro-2H-pyran-4-yl)-6,7,8,9-tetrahydro-2H-1,2,5,6-tetraazabenzo[cd]azulene] | 6 | 0 | 7 | 1 | 6 | 0 | 0 | 35 | 0
CN1CCC(N2Cc3ccccc3-c3n[nH]c4ccnc2c34)CC1 [Example 55] | 64 | 14 | 31 | 0 | 0 | 10 | 6 | 73 | 1
CC(C)n1ncc2c1CN(C1CCN(C)CC1)c1nccc3[nH]nc-2c13 [Example 68] | 32 | 0 | 10 | 0 | 0 | 9 | 0 | 43 | 0
